Source: patent US10428060B2, “PI-kinase inhibitors with anti-infective activity” (The Board of Trustees of the Leland Stanford Junior …, priority 2011, dated 2019)
“Also recorded” adds a separate entry of the source.

Tests used:
[1] = system: HRV; assay: Rhinovirus antiviral assay; assay type: cell-based; conditions: Human rhinovirus sp.
[2] = system: HCV genotype 2a; assay: microbe, parasite or virus in culture; assay type: cell-based; conditions: Hepatitis C virus, Huh7.5, read-out: HCV2a EC50
[3] = biological target: T1, PI4KIIIB (Bos taurus, UniProt O02810); assay: PI4KIIIB kinase assay; assay type: biochemical, bovine
T1 construct: made in house; host or cells: COS-7 cells, transient transfection, anti-HA immunoprecipitate on protein G Sepharose beads
Method: (§1) In the assays described here, p110α-p85 complex and p110γ were acquired from Millipore. Assays were performed with Lα-phosphatidylinositol (Avanti) as described in Knight et al. Nat Protoc. […] Inhibitor series were prepared 10% DMSO as 5× stocks for the assay. […] COS-7 cells were cultured in 10 cm dishes and transfected at 70% confluence with 10 μg of plasmid DNA (HA-tagged bovine PI4KIIIβ, HA-tagged human PI4KIIIα) using Lipofectamine 2000 and 5 ml Opti-MEM following the manufacturer's instructions. After 5 hours the transfection medium was replaced with 10 ml complete DMEM. 36 hrs post transfection, cells were washed once with 5 ml PBS (pH 7.4) and lysed in 1 ml of lysis buffer (1) on ice. […] To the lysates was added 200 μl of protein G Sepharose 4 fast flow beads that were prewashed with PBS and lysis buffer and 2 μg of anti-HA antibody. The tubes were then incubated overnight at 4 degrees C. in a tube rotator. […] Kinase reactions were run in a mixture of 45 μL of PI buffer (1 mM PI in kinase buffer), 10 μL of immunoprecipitated beads, 2 µL of inhibitors (dissolved and diluted in DMSO) or DMSO and 5 μL of [γ-^32P]-ATP (1 mM and 2 μCi/tube). The immunoprecipitates in PI buffer were pre-incubated with the drugs for 20 min prior the initiation of kinase reaction by adding ATP and the reactions were carried out for 30 min in 15 ml polypropolyne tubes. Reactions were terminated by addition of 3 ml of CHCl3:CH3OH:HCl (200:100:0.75) followed by 0.6 ml of 0.6N HCl to induce phase separation. The mixtures were vortexed, centrifuged at 2000 rpm for 2 min and the upper phase was discarded. To the lower phase was added 1.5 ml of CHCl3:CH3OH:0.6N HCl (3:48:47) and the mixture vortexed and centrifuged at 2000 rpm for 2 min. The lower phase was then transferred to counting vials and evaporated. Samples were counted in a scintillation beta counter after adding 5 ml of Instafluor (Perkin-Elmer).
PI-kinase assay: Compounds are tested in C.1.1. PI kinase assays as described by Shokat et al., “A membrane capture assay for lipid kinase activity.” Nat. Protoc.

[4] = biological target: PI3KC2B (Homo sapiens, UniProt O00750); assay: PI3KC2B kinase assay; assay type: biochemical
Method: (§2) PI-kinase assay: Compounds are tested in C.1.1. PI kinase assays as described by Shokat et al., “A membrane capture assay for lipid kinase activity.” Nat. Protoc. 2007; 2(10):2459-66.

[5] = biological target: T2, PI3K p110g (Homo sapiens, UniProt P48736); assay: PI3K p110g kinase assay; assay type: biochemical
T2 construct: purchased Millipore
Method: (§3) In the assays described here, p110α-p85 complex and p110γ were acquired from Millipore. Assays were performed with Lα-phosphatidylinositol (Avanti) as described in Knight et al. Nat Protoc. 2007; 2 (10):2459-66. Inhibitor series were prepared 10% DMSO as 5× stocks for the assay. Assays of HsVps34 were performed as described in Knight et al, except that the final assay buffer composition used was changed to 20 mM HEPES 7.5, 100 mM NaCl, 3 mM MgCl, 1 mg/mL PI and 44 nM hvps34 was used in the assay. […] COS-7 cells were cultured in 10 cm dishes and transfected at 70% confluence with 10 μg of plasmid DNA (HA-tagged bovine PI4KIIIβ, HA-tagged human PI4KIIIα) using Lipofectamine 2000 and 5 ml Opti-MEM following the manufacturer's instructions. After 5 hours the transfection medium was replaced with 10 ml complete DMEM. 36 hrs post transfection, cells were washed once with 5 ml PBS (pH 7.4) and lysed in 1 ml of lysis buffer (1) on ice. Lysates were collected by scraping and after 15 min they were centrifuged at 13,000 rpm for 10 min. To the lysates was added 200 μl of protein G Sepharose 4 fast flow beads that were prewashed with PBS and lysis buffer and 2 μg of anti-HA antibody. The tubes were then incubated overnight at 4 degrees C. in a tube rotator. The Sepharose beads in the lysate were washed twice with 150 mM NaCl in RIPA buffer, twice with RIPA buffer and once with kinase buffer (50 mM Tris/HCl, pH 7.5, 20 mM MgCl2, 1 mM EGTA, 1 mM PtdIns, 0.4% Triton X-100, 0.5 mg/mL BSA) and finally the beads were resuspended in 200 μL kinase buffer. Kinase reactions were run in a mixture of 45 μL of PI buffer (1 mM PI in kinase buffer), 10 μL of immunoprecipitated beads, 2 µL of inhibitors (dissolved and diluted in DMSO) or DMSO and 5 μL of [γ-^32P]-ATP (1 mM and 2 μCi/tube). The immunoprecipitates in PI buffer were pre-incubated with the drugs for 20 min prior the initiation of kinase reaction by adding ATP and the reactions were carried out for 30 min in 15 ml polypropolyne tubes. Reactions were terminated by addition of 3 ml of CHCl3:CH3OH:HCl (200:100:0.75) followed by 0.6 ml of 0.6N HCl to induce phase separation. The mixtures were vortexed, centrifuged at 2000 rpm for 2 min and the upper phase was discarded. To the lower phase was added 1.5 ml of CHCl3:CH3OH:0.6N HCl (3:48:47) and the mixture vortexed and centrifuged at 2000 rpm for 2 min. The lower phase was then transferred to counting vials and evaporated. Samples were counted in a scintillation beta counter after adding 5 ml of Instafluor (Perkin-Elmer).
as §2

[6] = system: PI(4)P and PI(4,5)P2 pools in Huh7.5 cells; assay: Immunofluorescence of intracellular PI-4 and PIP2 pools in Huh7.5 cells; assay type: cell-based
Method: To further confirm its mechanism of action the effect of (1) on PI-4 levels was determined in cells using immunofluorescence to monitor the intracellular localized pools of PI-4. The effect of (1) on intracellular pools of PIP2 was tested, which were predicted to be similarly sensitive to inhibition using (1). […] Uninfected Huh7.5 cells or HCV-infected Huh7.5 cells were used.

[7] = biological target: T3, PI4KIIIA (Homo sapiens, UniProt P42356); assay: PI4KIIIA kinase assay; assay type: biochemical
T3 construct: made in house; host or cells: COS-7 cells, transient transfection, anti-HA immunoprecipitate on protein G Sepharose beads
Method: as §3, with “Reactions were terminated by addition of 3 ml of CHCl3:CH3OH:HCl (200:100:0.75) followed by 0.6 ml of 0.6N HCl to induce phase separation. The mixtures were vortexed, centrifuged at 2000 rpm for 2 min and the upper phase was discarded. To the lower phase was added 1.5 ml of CHCl3:CH3OH:0.6N HCl (3:48:47) and the mixture vortexed and centrifuged at 2000 rpm for 2 min. The lower phase was then transferred to counting vials and evaporated.” left out, “(Perkin-Elmer). […]” for “(Perkin-Elmer).”

[8] = biological target: T4, PI3K p110a (Homo sapiens, UniProt P42336); assay: PI3K p110a kinase assay; assay type: biochemical
T4 construct: purchased Millipore
Method: as §1, with “The immunoprecipitates in PI buffer were pre-incubated with the drugs for 20 min prior the initiation of kinase reaction by adding ATP and the reactions were carried out for 30 min in 15 ml polypropolyne tubes. Reactions were terminated by addition of 3 ml of CHCl3:CH3OH:HCl (200:100:0.75) followed by 0.6 ml of 0.6N HCl to induce phase separation. The mixtures were vortexed, centrifuged at 2000 rpm for 2 min and the upper phase was discarded. To the lower phase was added 1.5 ml of CHCl3:CH3OH:0.6N HCl (3:48:47) and the mixture vortexed and centrifuged at 2000 rpm for 2 min. The lower phase was then transferred to counting vials and evaporated.” left out, “(Perkin-Elmer). […]” for “(Perkin-Elmer).”

[9] = immunofluorescence, 250 nM, 500 nM or 1 uM, uninfected or HCV-infected Huh7.5 cells

Chain of PI3KC2B (O00750 whole entry): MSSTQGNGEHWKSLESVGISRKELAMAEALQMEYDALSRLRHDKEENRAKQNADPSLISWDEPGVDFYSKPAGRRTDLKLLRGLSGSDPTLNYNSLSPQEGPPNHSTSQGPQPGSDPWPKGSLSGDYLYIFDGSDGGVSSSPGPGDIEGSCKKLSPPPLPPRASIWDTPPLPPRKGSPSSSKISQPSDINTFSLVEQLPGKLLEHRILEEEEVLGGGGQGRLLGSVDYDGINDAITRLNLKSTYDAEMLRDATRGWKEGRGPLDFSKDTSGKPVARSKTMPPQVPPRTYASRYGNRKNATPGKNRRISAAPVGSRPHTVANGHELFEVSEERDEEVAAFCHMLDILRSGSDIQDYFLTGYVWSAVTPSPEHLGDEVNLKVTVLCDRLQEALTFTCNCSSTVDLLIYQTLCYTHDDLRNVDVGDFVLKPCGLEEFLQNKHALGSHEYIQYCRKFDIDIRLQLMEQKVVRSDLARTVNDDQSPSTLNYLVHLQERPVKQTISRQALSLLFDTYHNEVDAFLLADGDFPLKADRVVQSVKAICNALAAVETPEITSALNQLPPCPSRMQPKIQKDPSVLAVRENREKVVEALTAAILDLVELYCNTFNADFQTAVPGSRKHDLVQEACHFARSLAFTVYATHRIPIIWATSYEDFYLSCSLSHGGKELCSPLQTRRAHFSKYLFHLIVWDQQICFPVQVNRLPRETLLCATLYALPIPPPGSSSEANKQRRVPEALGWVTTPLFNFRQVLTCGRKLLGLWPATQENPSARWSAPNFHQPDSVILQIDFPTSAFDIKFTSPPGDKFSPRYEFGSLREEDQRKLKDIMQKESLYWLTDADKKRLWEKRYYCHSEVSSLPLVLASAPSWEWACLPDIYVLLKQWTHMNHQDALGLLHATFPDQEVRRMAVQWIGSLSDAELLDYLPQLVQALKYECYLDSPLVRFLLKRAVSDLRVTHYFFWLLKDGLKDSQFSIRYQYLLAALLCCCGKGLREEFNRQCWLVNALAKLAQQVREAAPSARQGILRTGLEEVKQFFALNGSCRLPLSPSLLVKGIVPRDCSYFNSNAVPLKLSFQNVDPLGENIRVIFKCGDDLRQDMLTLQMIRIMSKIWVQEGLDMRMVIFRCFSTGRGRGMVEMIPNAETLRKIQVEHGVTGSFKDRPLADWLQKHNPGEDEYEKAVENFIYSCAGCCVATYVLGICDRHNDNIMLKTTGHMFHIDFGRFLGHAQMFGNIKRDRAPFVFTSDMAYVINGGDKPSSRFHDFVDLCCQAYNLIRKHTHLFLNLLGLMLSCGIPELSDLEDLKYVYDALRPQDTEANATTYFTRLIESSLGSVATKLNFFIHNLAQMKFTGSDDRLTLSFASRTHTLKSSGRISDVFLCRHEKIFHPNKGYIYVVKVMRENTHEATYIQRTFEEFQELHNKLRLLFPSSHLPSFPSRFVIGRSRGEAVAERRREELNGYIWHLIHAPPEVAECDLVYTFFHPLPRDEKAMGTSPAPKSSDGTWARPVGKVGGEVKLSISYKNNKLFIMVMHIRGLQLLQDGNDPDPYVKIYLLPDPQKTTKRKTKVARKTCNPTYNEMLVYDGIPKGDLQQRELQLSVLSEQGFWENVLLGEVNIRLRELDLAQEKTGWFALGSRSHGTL
T2 sequence (P48736 whole entry): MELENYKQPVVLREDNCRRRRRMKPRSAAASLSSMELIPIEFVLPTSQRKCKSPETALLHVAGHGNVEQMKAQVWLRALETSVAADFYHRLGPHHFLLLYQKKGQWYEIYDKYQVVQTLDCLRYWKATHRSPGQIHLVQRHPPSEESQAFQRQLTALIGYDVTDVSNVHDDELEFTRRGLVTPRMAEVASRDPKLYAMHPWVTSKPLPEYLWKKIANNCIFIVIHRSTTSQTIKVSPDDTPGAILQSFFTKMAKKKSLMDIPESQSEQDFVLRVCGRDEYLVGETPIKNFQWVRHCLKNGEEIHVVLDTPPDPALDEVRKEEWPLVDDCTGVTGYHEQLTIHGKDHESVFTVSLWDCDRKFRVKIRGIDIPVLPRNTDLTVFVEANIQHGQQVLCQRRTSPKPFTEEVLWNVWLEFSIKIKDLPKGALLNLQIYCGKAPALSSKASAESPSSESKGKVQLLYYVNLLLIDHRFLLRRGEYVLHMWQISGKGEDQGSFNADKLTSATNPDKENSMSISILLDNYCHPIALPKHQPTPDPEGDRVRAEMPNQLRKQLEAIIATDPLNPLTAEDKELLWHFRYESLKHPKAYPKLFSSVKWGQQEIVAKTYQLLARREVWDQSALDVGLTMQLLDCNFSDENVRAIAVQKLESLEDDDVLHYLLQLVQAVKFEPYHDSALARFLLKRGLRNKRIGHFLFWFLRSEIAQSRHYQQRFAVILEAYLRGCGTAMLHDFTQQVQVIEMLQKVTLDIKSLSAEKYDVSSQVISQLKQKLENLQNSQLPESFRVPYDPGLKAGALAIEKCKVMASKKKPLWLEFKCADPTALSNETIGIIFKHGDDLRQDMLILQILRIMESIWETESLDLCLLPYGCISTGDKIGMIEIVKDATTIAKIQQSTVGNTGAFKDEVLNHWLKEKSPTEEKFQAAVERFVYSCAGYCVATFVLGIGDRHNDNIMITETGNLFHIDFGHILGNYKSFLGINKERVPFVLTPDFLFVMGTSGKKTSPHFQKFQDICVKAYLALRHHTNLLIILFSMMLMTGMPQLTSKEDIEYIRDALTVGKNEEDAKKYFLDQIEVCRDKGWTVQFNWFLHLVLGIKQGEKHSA
T1 sequence (O02810 whole entry): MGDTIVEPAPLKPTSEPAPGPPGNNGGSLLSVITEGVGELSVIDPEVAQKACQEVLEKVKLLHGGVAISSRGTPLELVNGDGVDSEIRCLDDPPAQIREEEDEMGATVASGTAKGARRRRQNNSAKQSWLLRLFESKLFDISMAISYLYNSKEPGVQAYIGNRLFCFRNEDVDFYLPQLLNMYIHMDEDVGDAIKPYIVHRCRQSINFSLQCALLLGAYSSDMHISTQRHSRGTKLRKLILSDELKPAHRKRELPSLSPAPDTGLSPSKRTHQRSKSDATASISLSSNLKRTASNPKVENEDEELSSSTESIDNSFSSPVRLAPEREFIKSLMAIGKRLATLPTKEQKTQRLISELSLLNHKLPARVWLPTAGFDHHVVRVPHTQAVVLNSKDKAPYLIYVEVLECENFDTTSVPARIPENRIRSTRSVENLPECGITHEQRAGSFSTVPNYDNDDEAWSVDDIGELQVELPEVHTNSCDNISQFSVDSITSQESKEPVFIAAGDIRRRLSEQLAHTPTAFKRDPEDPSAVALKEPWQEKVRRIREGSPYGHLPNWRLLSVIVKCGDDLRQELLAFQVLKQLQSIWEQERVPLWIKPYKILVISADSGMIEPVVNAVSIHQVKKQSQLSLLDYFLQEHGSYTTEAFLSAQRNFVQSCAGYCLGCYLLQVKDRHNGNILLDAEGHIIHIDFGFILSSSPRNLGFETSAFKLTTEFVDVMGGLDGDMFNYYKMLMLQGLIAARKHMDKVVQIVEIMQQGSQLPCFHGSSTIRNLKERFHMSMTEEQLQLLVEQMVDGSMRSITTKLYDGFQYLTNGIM

IC50 [4] [µM]	IC50 [5] [µM]	Structure (SMILES)	EC50 [1] [µM]	EC50 [2] [µM]	other results
> 10	> 10	COc1ccc(-c2sc(NC(=O)CCC3CCCC3)nc2C)cc1S(=O)(=O)NC1CCNCC1 [Compound S-160, 3-cyclopentyl-N-[5-[4-methoxy-3-(4-piperidylsulfamoyl)phenyl]-4-methyl-thiazol-2-yl]propanamide]	–	–	–
> 10	> 10	COc1ccc(-c2sc(NC(C)C)nc2C)cc1S(=O)(=O)N[C@H]1CC[C@H](O)CC1 [Compound S-215, N-(4-hydroxycyclohexyl)-5-[2-(isopropylamino)-4-methyl-thiazol-5-yl]-2-methoxy-benzenesulfonamide]	–	–	–
> 10	> 10	COc1ccc(-c2sc(NC(=O)CC3CCOCC3)nc2C)cc1S(=O)(=O)Nc1ccc(O)cc1C [Compound S-231, N-[5-[3-[(4-hydroxy-2-methyl-phenyl)sulfamoyl]-4-methoxy-phenyl]-4-methyl-thiazol-2-yl]-2-tetrahydropyran-4-yl-acetamide]	–	–	–

Second part, the compound before the results:

Structure (SMILES)	IC50 [4] [µM]	IC50 [5] [µM]	EC50 [1] [µM]	EC50 [2] [µM]	other results
COc1ccc(-c2sc(NCC3CCCCC3)nc2C)cc1S(=O)(=O)NC1CCCNC1 (centres unmarked) [Compound S-115, 5-[2-(cyclohexylmethylamino)-4-methyl-thiazol-5-yl]-2-methoxy-N-(3-piperidyl)benzenesulfonamide]	–	–	< 0.001	0.1 to 1	IC50 [3]: < 0.1 µM
COc1ccc(-c2sc(N[C@H](C)C3CCCCC3)nc2C)cc1S(=O)(=O)N[C@H]1CC[C@H](O)CC1 [Compound S-193, 5-[2-[[(1R)-1-cyclohexylethyl]amino]-4-methyl-thiazol-5-yl]-N-(4-hydroxycyclohexyl)-2-methoxy-benzenesulfonamide]	> 10	–	–	–	–
COc1ccc(-c2sc(NC(=O)C3CCCC3)nc2C)cc1S(=O)(=O)Nc1ccc(O)cc1 [Compound 1]	–	–	–	–	Effect on the ER (calnexin co-staining) ([6]; control for non-specific effects): absence of any detectable effects on the ER; Effect on intracellular PI-4 (PI(4)P) levels [6, 9]: dose-dependent decrease; also recorded: decreases; Effect on intracellular PIP2 (PI(4,5)P2) levels [6, 9]: dose-dependent decrease; also recorded: decreases
COc1ccc(-c2sc(N[C@H](C)C3CCCCC3)nc2C)cc1S(=O)(=O)NC1CCCNC1 (stereo partly drawn) [Compound S-148, 5-[2-[[(1R)-1-cyclohexylethyl]amino]-4-methyl-thiazol-5-yl]-2-methoxy-N-(3-piperidyl)benzenesulfonamide]	–	> 10	–	–	IC50 [7]: 0.1 to 1 µM; IC50 [3]: < 0.1 µM; IC50 [8]: > 10 µM
COc1ccc(-c2sc(NC(=O)CC3CCCC3)nc2C)cc1S(=O)(=O)Nc1ccc(O)cc1 [Compound S-1, 2-cyclopentyl-N-[5-[3-[(4-hydroxyphenyl)sulfamoyl]-4-methoxy-phenyl]-4-methyl-thiazol-2-yl]acetamide]	> 10	> 10	< 0.001	0.001 to 0.1	–
COc1ncc(-c2sc(NC(=O)CC3CCOCC3)nc2C)cc1S(=O)(=O)Nc1ccc(F)cc1F [Compound S-260]	–	> 10	1 to 10	0.1 to 1	–
COc1ccc(-c2sc(NC(C)(C)C)nc2C)cc1S(=O)(=O)N[C@H]1CC[C@H](O)CC1 [Compound S-216, 5-[2-(tert-butylamino)-4-methyl-thiazol-5-yl]-N-(4-hydroxycyclohexyl)-2-methoxy-benzenesulfonamide]	> 10	> 10	–	–	–
